# Measurements published in US20120107423A1, “Methods of Using Inhaled Nitric Oxide Gas for Treatment of Acute Respiratory Distress Syndrome” (INO Therapeutics LLC, priority 2010, published 2012).
# What was measured:
# [1] = at STP; cited from earlier work
# [2] = tested on: patients with moderately severe acute lung injury (ALI) / ARDS survivors; experiment: Respiratory parameters during mechanical ventilation: cumulative exposure (AUC) over study gas administration; format: in vivo, human; conditions: for Duration of exposure: PaO2/FiO2 ratio: during study gas administration / length of mechanical ventilation
# Protocol: Baseline oxygenation measures included PaO2, arterial partial pressure of CO2 (PaCO2), SpO2, FiO2, PEEP, PaO2/FiO2 ratio, […], tidal volume, and mean airway pressure. Respiratory parameters (FiO2, PEEP, and PaO2/FiO2 ratio) were recorded on case report forms every 12 hours during mechanical ventilation.
# (§1) All between-group differences in PFT results were evaluated using the Wilcoxon rank sum test. Between-group differences in baseline clinical and demographic characteristics were assessed with the Fisher's exact test and the chi-square test for categorical variables and with the Wilcoxon rank sum test for continuous variables. Baseline oxygenation and respiratory/oxygenation parameters in the two groups were compared using Wilcoxon rank sum tests. The areas under the curve (AUCs) of FiO2, PEEP, and PaO2/FiO2 ratio were calculated using the trapezoidal rule. The null hypothesis that the respective AUCs were normally distributed was rejected employing the Shapiro-Wilk test. A Wilcoxon rank sum test was utilized to assess the differences in each median AUC between treatment groups. A p value <0.05 was considered significant.
# [3] = tested on: patients with moderately severe acute lung injury (ALI) / ARDS survivors; experiment: Pulmonary function tests at 6 months post-treatment in ARDS survivors (iNO 5 ppm vs placebo); format: in vivo, human
# Protocol: (§2) A large-scale, randomized, blinded, placebo-controlled study was carried out in the Intensive Care Units (ICUs) of 46 US hospitals to evaluate the efficacy of low-dose (5 ppm) iNO in 385 patients with moderately severe Acute Lung Injury (ALI). The primary endpoint of this study was number of days alive and off assisted breathing.
# (§3) Patients had moderately severe acute lung injury (ALI), defined by a modification of American-European Consensus Conference criteria (PaO2/inspired oxygen concentration [FiO2] ratio of ≦250 mm Hg), due to causes other than severe sepsis. Patients with evidence of non-pulmonary system failure at the time of randomization and sepsis-induced ARDS were excluded. Patients were also excluded if they had sustained hypotension requiring vasopressor support, hemodynamic profiles supporting severe sepsis, severe head injury, severe burns, or evidence of other significant organ system dysfunction at baseline.
# (§4) Patients were randomly assigned to receive either inhaled placebo gas (nitrogen) or 5 ppm of iNO (INO Therapeutics Inc., Port Allen, La.). All patients, healthcare professionals, and investigators were blinded to the assigned treatment. Inhaled NO was administered via INOvent® delivery system (Datex-Ohmeda, Madison, Wis.) that blended treatment gas (nitrogen or NO at 100-ppm balance nitrogen) 1:20 with ventilator gases to achieve a target ppm value in the inspiratory limb of the ventilator.
# (§5) All patients using the iNO delivery system received mechanical ventilatory support. Treatment continued with active or placebo gas until one of the following criteria were met: [1] end of trial (28 days); [2] death; or [3] adequate oxygenation (arterial oxygen saturation by pulse oximetry [SpO2]≧92% or PaO2 of ≧63 mm Hg) without treatment gas at ventilator settings of FiO2≦0.4 and positive end-expiratory pressure (PEEP) of ≦5 cm H2O. Decreases in treatment gas continued in 20% decrements (titrated down by 1 ppm for inhaled NO) every 30 minutes until either the treatment gas concentration reached 0% or oxygenation criteria were not satisfied. If oxygenation criteria were not met, treatment gas concentration was titrated up until they were again achieved. Increments of upward titration were determined by the clinician, based on degree of arterial desaturation.
# Pulmonary function testing (PFT) at 6 months post-treatment was required in both iNO- and placebo-treated patients as part of the original study design. PFTs included forced expiratory volume in 1 second (FEV1), FEV1% predicted, forced vital capacity (FVC), FVC % predicted, the FEV1/FVC ratio, FEV1/FVC ratio % predicted, forced expiratory flow (FEF) from 25% to 75% of FVC (FEF25-75%), FEF25-75%% predicted, functional residual capacity (FRC), FRC % predicted, total lung capacity (TLC), TLC % predicted, CO diffusion, and CO diffusion % predicted.
# as §1
# A total of 92 of the 302 survivors (30%) were capable of and participated in the 6-month follow-up pulmonary function analysis (iNO, n=51; placebo, n=41). The balance of surviving subjects was lost to follow-up for reasons unknown, and PFT data are not available. […]
# [4] = tested on: ARDS patients; conditions: cited from earlier work
# [5] = tested on: patients with moderately severe Acute Lung Injury (ALI); experiment: Safety results, adverse events in the initial 28-day study period; format: in vivo, human; conditions: iNO 5 ppm
# Protocol: as §2
# Safety results for the initial 28-day study period have been reported and are summarized briefly here. A total of 630 adverse events (AEs) were reported for patients treated with iNO versus 666 events for those who received placebo. Respiratory system AEs occurred in 51% versus 61% of patients receiving iNO and placebo, respectively, primarily due to higher frequencies of pneumonia, pneumothorax, and apnea in the placebo group.
# [6] = tested on: patients with moderately severe Acute Lung Injury (ALI); experiment: Randomized, blinded, placebo-controlled 28-day study of low-dose (5 ppm) iNO, intent-to-treat analysis; format: in vivo, human
# Protocol: as §2, §3, §4, §5
# [7] = tested on: experimental animals and ARDS patients; conditions: cited from earlier work
# [8] = experimental animals and ARDS patients
smiles,measurement,setting,value
"[N]=O [Inhaled NO, nitric oxide]",Solubility in water,[1],about 2 mM
same,Duration of exposure: PaO2/FiO2 ratio,[2]; mean ± SD,262 ± 407
same,Duration of exposure: PaO2/FiO2 ratio,"[2]; mean ± SD, listed as iNO",2637±1729
same,Duration of exposure: FiO2,"[2]; during study gas administration, mean ± SD, N = 51",6.34 ± 4.5
same,"Cumulative exposure to FiO2, PEEP and PaO2/FiO2 ratio, versus placebo",[2]; over the length of mechanical ventilation,less cumulative exposure to all three variables
same,"Duration of exposure, total FiO2","[2]; over the length of mechanical ventilation, mean ± SD",6.3 ± 4.5 days
same,"Aggregate per-patient changes from baseline in supplemental oxygen, PEEP, or PaO2/FiO2 ratio, versus placebo",[2]; through day 28 (FIG. 2a-c),no significant differences between groups
same,"FRC, % predicted",[3]; mean,93.98 % predicted
same,TLC,[3]; mean,5.54 L
same,"TLC, % predicted",[3]; mean,93.33 % predicted
same,CO diffusion,[3]; mean (SD),18.25 (6.77) mL/min/mm Hg
same,"CO diffusion, % predicted",[3]; mean (SD),71.02 (20.79) % predicted
same,"FEF25/75%, % predicted",[3]; mean (SD),72.50 (27.71) % predicted
same,"FEV1, % predicted",[3]; mean (SD),80.23 (21.21) % predicted
same,FEV1/FVC,[3]; mean (SD),77.45 (15.19) %
same,"FEV1/FVC, % predicted",[3]; mean (SD),96.14 (13.79) % predicted
same,FRC,[3]; mean (SD),3.00 (0.94) L
same,FVC,[3]; mean (SD),3.36 (1.09) L
same,"FVC, % predicted",[3]; mean (SD),83.78 (19.38) % predicted
same,FEV1,"[3]; mean (SD), iNO 5 ppm up to 28 days",2.64 (0.91) L
same,"FEV1, % predicted","[3]; mean (SD), listed as iNO",significantly greater
same,"FEV1/FVC, % predicted","[3]; mean (SD), listed as iNO",significantly greater
same,"FVC, % predicted","[3]; mean (SD), listed as iNO",significantly greater
same,TLC,"[3]; mean, listed as iNO",significantly greater
same,"TLC, % predicted","[3]; mean, listed as iNO",significantly greater
same,H2O2 production by polymorphonuclear leukocytes,[4],significantly decrease
same,IL-6 concentration in BAL fluid,[4],decreased
same,IL-8 concentration in BAL fluid,[4],decreased
same,β2-integrin CD11b/CD18 expression by polymorphonuclear leukocytes,[4],significantly decrease
same,Patients with respiratory system AEs,[5],51%
same,Total adverse events (AEs) reported,[5],630 events
same,Partial pressure of arterial oxygen (PaO2),"[6]; initial 24 hours of treatment, p<0.05, resolved by 48 hours",significant increase
same,"Days alive and meeting oxygenation criteria for extubation, benefit versus control",[6]; intent-to-treat,no significant benefit
same,"Mortality, benefit versus control (nitrogen gas)","[6]; intent-to-treat, 5 ppm iNO, 385 patients",no significant benefit
same,"Days alive and off assisted breathing, benefit versus control","[6]; intent-to-treat, primary endpoint",no significant benefit
same,Formation of platelet-leukocyte aggregates,[7]; correlated with NO-dependent inhibition of platelet P-selectin expression,significantly inhibiting
same,Pulmonary concentrations of interleukin (IL)-8,[7]; [8],significantly decreases
same,Pulmonary concentrations of neutrophils,[7]; [8],significantly decreases
